Test system: MKs
Assay: Shear-induced proPLT production and PLT release by MKs in the microfluidic device (live-cell microscopy)
Assay type: cell-based, mouse
Conditions: for PLT release: under both static and physiological shear conditions; for shear-induced proPLT production: physiological shear
Protocol: Devices were coated with a 0.22 μm filtered 10% BSA solution (Millipore, Billerica, Mass.) for 30 minutes to prevent direct cell contact with glass. Primary MKs and media were infused in the first inlet 118 and second inlet 122, respectively, at a rate of 12.5 μL/hour using a two-syringe microfluidic pump (Harvard Apparatus, Holliston, Mass.). When the first outlet 120 is closed, both input solutions are redirected toward the second outlet 124 causing primary MKs to trap.
For shear cultures, MKs were loaded onto ‘naked’ microfluidic devices (only BSA-coated), and the infusion rate was doubled incrementally from 12.5 μL/hr to 200 μL/hr over a 2 hour period. For static cultures, isolated MKs were pipetted into chambers formed by mounting a glass coverslide coated with 3% BSA onto a […] with a 1 cm hole and cultured for 24 hours. Both static and shear cultures were maintained at 37 degrees C. and 5 percent CO2 and examined on a Zeiss Axiovert 200 (Carl Zeiss, Thornwood, N.Y.) equipped with 10× (numerical aperature, 0.30) Plan-Neofluar air objective. Differential interference contrast (DIC) images were obtained using CCD camera (Hamamatsu Photonics, Boston, Mass.) at either 2 second (shear cultures) or 20 minute (static cultures) intervals. Images were analyzed using the Metamorph version 7.7.2.0 image analysis software (Molecular Devices, Sunnyvale, Calif., USA) and ImageJ software version 1.47p. ProPLT extension rates were determined manually for over 200 MKs from at least three independent samples. For PLT spreading experiments, effluent was collected from microfluidic devices after 2 hours and pipetted into uncoated static culture chambers, described above. PLTs were permitted to contact glass by gravity sedimentation and spreading was captured at 5 second intervals over a 5 minute period.
In vivo BM MKs extend proPLTs in the direction of blood flow and release PLTs, proPLTs, large cytoplasmic fragments (prePLTs), and even whole MKs into sinusoidal blood vessels which may be trapping in the pulmonary microvascular bed, or otherwise maturing in the circulation. To determine the effect of physiological shear on PLT production, mouse fetal liver culture-derived (mFLC) MKs were isolated on culture day 4 and characterized by size and ploidy before being infused into the microfluidic device (shown in FIG. 3A).
While shear rates were kept constant, proPLT extension rates varied at different positions along the shaft, predictive of a regulated cytoskeletal driven mechanism of proPLT elongation (shown in FIG. 4C). […]

| SMILES | PLT release (1 mM EHNA) | shear-induced proPLT production (MKs incubated with 1 mM EHNA prior to infusion in microfluidic device) | PLT release (5 μM Jas) | shear-induced proPLT production (MKs incubated with 5 μM Jas prior to infusion in microfluidic device) |
| --- | --- | --- | --- | --- |
| CCCCCC[C@@H]([C@@H](C)O)n1cnc2c(N)ncnc21 (racemic) [EHNA] | inhibited | inhibit | – | – |
| C/C1=C\[C@H](C)C[C@H](C)OC(=O)C[C@H](c2ccc(O)cc2)NC(=O)[C@@H](Cc2c(Br)[nH]c3ccccc23)N(C)C(=O)[C@H](C)NC(=O)[C@@H](C)C1 [Jas, Jasplankinolide] | – | – | inhibited | inhibit |
